# Laboratory results from patent US7135590B2, “Gallic acid derivative and process of preparing the same” (Council of Scientific and Industrial Research, priority 2003, dated 2006).
# How the values were obtained:
# Mentha arvensis = assay: Growth promoting activity with Mentha arvensis internode explants; format: in vivo
# Description: To confirm the growth promoting activity of methanone-(3′,4′,5′-trimethoxy) phenyl, 1-naphthyl, 2-O-4″-ethyl but-2″-enoate, it was tested with a medicinal and aromatic plant species Mentha arvensis. The explants used were 0.5 cm long pieces of the second and third internodes of the shoots formed from axillary buds and culture. The internode segments were inoculated in MS basal media (Murashige and Skoog, 1962, Physiol. Planta. 15: pp. 473 to 497) containing vitamins 100 μg/ml, myo-inositol 3%, w/v, sucrose 1.5% w/v, Agar and different concentrations of auxins and cytokinin. Different concentrations of 1-naphthalene acetic acid (NM) (0.0, 0.2, 2.0 μg/ml) were used in combination with different concentrations of 6 benzyl amino purine (BAP) (0, 10 & 5 μg/ml). On each kind of media […] of the explants were inoculated into three petriplates with each plates containing 4 explants. Compound 1 was serially replaced with each concentration of NM and BAP individually to observe its growth promoting activity. The experiment was arranged in the form of a completely randomized design (CRD).
# Cultures were maintained at 25±2° C. and 400 to 600 lux light intensity with 16 h photoperiod. The response of explants was recorded every 24 h over 4 week periods. […] The proportional increase in biomass was recorded by taking the fresh weight of the growing tissue during sub culturing and dividing the increase with the initial weight.
# At the end of 12 weeks from inoculation the shoots were separated and individually transferred to MS basal media containing vitamins for rooting. The rooted plantlets were subsequently transferred to pods in a green house.
# The basal medium for studying the response was MS 0 (Murashige and Skoog, 1962, Physiol. Planta. 15: pp. 473 to 497) supplemented with 0.2 mg/L IAA (indole acetic acid) and 5 mg/L BAP (benzene amino purine).
# The basal medium for studying the response was MS 0 (Murashige and Skoog, 1962, Physiol. Planta. 15: pp. 473 to 497) supplemented with 2mg/L IAA (indole acetic acid) and 10 mg/L BAP (benzene amino purine).
# Bacopa monnieri = assay: Growth promoting activity using Bacopa sensor system; format: in vivo
# Description: For testing the growth promoting effect of methanone-(3′,4′,5′-trimethoxy) phenyl, 1-naphthyl, 2-O-4″-ethyl but-2″-enoate, the compounds was dissolved in DMSO and added into the medium at 1.0 μg/ml. Only solvent was used as a control in the experiment for comparison. A fast propagating strain of Bacopa monnieri developed as a biosensor system through tissue culture at CIMAP (Khanuja et al., 2001, J Environa Pathol, Toxicol and Onco (JEPTO), 20:pp. 15 to 22) was used in the tests. The MS basal medium (Murashige and Skoog, 1962, Physiol. Planta. 15: pp. 473 to 497) supplemented with test compounds was used in the assays. Measured 0.5 to 1.0 ml medium was poured into 1.5 ml graduated microcentrifuge tubes. Twig cuttings of 2.5 cm were inoculated in 10 replicates for each treatment. These inoculated tubes were put into a half transparent desiccator allowing air passage through sterile cotton plugs fixed on opening vent. The tubes were placed such that the medium-containing portion of the tubes where roots would be initiating is inserted in to the holes of the stand made from a thermocol sheet. These desiccators were incubated at normal ambient temperature of 25 to 28° C. with 14 hours light and 10 hours dark cycle. The root initiation, shoot elongation, callus induction, shoot proliferation and wilting was recorded from day 2 to 14 every 24 hours.
compound,measurement,setting,value
"CCOC(=O)C=CCOc1ccc2ccccc2c1C(=O)c1cc(OC)c(OC)c(OC)c1 [Compound 1, methanone-(3′,4′,5′-trimethoxy) phenyl, 1-naphthyl 2-O-4″-ethyl but-2″-enoate]",Number of shoots observed after three weeks,"Mentha arvensis; Medium A2 with IAA replaced: BAP 5.0, Compound 1 0.2, no roots",1–2 shoots shoots per explant
same,Number of shoots observed after three weeks,"Mentha arvensis; Medium A3 with IAA replaced: BAP 10.0, Compound 1 2.0, single root in one replication",3–4 shoots shoots per explant
same,shoots produced,Mentha arvensis; within three weeks in medium A3,3 to 4 shoots
same,Shoot Elongation,"Bacopa monnieri; 1.0 μg/ml in MS basal medium, 2.5 cm twig cuttings, 10 replicates, recorded day 2 to 14, control 1.0",1.6 cms
same,Browning Yellowing Death,"Bacopa monnieri; 1.0 μg/ml in MS basal medium, twig cuttings, day 2 to 14",Nil
same,Root Elongation,"Bacopa monnieri; 1.0 μg/ml in MS basal medium, twig cuttings, day 2 to 14, control 0.8",0.8 cms
same,Branching,"Bacopa monnieri; 1.0 μg/ml in MS basal medium, twig cuttings, day 2 to 14, control 2.0",2.0 nos
same,Number of Roots,"Bacopa monnieri; 1.0 μg/ml in MS basal medium, twig cuttings, day 2 to 14, control 2 + 2",2 + 2 nos
same,Number of Leaves,"Bacopa monnieri; 1.0 μg/ml in MS basal medium, twig cuttings, day 2 to 14, control 5.0",11.0 nos
same,enhances the shoot elongation,Bacopa monnieri; within 15 days,about 1.6 cm
